This note sets out measurements from patent US20250092360A1, “METHODS AND COMPOSITIONS FOR GENERATING SOMATOSTATIN+ INTERNEURONS FROM HUMAN FOREBRAIN NEURAL PROGENITOR CELLS” (Trailhead Biosystems Inc., priority 2023, published 2025).

Each structure is given as a SMILES string. Entries after “also recorded” stand apart in the source; their conditions may differ.

In experiment [1] the test system is human pluripotent stem cells. The experiment in a line: HD-DoE stage 1, first 12-factor experiment: gene expression (qPCR) after 3-day treatment. It is filed as cell-based. Particulars: for impact on expression of OTX2: dynamic profile / model; for factor contribution, expression of SIX3 / factor contribution, expression of FEZF2: positive impact; for factor contribution, expression of SIX3: model optimized for maximal SIX3, 3-day treatment, qPCR; for factor contribution, expression of FEZF2: model optimized for maximum FEZF2 at 3576. The text has this: This example utilizes a method of High-Dimensional Design of Experiments (HD-DoE), as previously described in Bukys et al. (2020) […] 23:101346. The method employs computerized design geometries to simultaneously test multiple process inputs and offers mathematical modeling of a deep effector/response space. The method allows for finding combinatorial signaling inputs that control a complex process, such as during cell differentiation. It allows testing of multiple plausible critical process parameters, as such parameters impact output responses, such as gene expression. Because gene expression provides hallmark features of the phenotype of, for example, a human cell, the method can be applied to identify, and understand, which signaling pathways control cell fate. In the current example, the HD-DOE method was applied with the intent to find conditions for induction of […] neural progenitor-expressed genes, directly from the pluripotent stem cell state. To develop the recipe for each stage, the impact of agonists and antagonists of multiple signaling pathways (herein called effectors) on the expression of two sets of 53 pre-selected genes, after a 3-day treatment, has been tested and modeled. These effectors are small molecules or proteins that are commonly used during stepwise differentiation of stem cells to specific fates. Choice of the effectors were based on current literature on neural induction in forebrain region of developing brain and differentiation of stem cells to neural progenitors. To test the effectors, experiments with at least 8 factors were designed that can assess the response of cells to 48 or more different combinations of effectors in a range of concentrations. To analyze the models, we focused on expression of genes involved in development and patterning of the anterior neuroectoderm and forebrain including OTX2 (Hoch et al. (2015) Cell Reports 12:482-494), SIX3 (Lagutin et al. (2003) Genes & Development 17:368-379) and FEZF2 (Zhang et al. (2014) Development 141:4794-[…]). At later stages we focused on dorsoventral patterning of telencephalon and gene expressed in ventral forebrain including NKX2-1 and absence of PAX6 which is a dorsal forebrain marker (Stoykova et al. (2000) J. Neurosci. 20:8042-8050). The impact of each effector on gene expression level is defined by a parameter called factor contribution that is calculated for each effector during the modeling. To identify the recipe for stage 1 of differentiation, 96 different combinations of effectors generated using Design-of-Experiments compression through D-optimality were robotically prepared. The effector combinations were prepared in a basal media and were subsequently added to the cells, which were then allowed to differentiate. Three days later RNA extraction was performed, and gene expression was obtained using quantitative PCR analysis. The data were normalized and modeled using partial least squares regression analysis to the effector design, resulting in the generation of gene-specific models, which after model tuning for maximal Q2 predictive power, provided explanation of the effectors ability to control the expression of individual genes, combinatorically, and individually. Solutions within the tested space could then be explored to address desirability. Optimizing for maximal expression of SIX3 at 3300 and FEZF2 1355 expression values led to robust solutions. This model was derived from testing 12 effectors including AGN193109, LDN193189, CHIR99021, XAV939, IGF2, Purmorphamine, 4-oxo-RA, TTNPB, SR11237, FGF8, PD0325901 and […]. […] The model was also optimized for maximum expression of FEZF2 separately at 3576 expression value to find any additional factors that can boost expression of forebrain genes. […] To find the set of factors that have the potential to optimize all 3 genes in this experiment, a new assessment was done through dynamic profile analysis with focus on maximal expression of OTX2, FEZF2 and SIX3.
(In general: Real-time PCR tracks product formation cycle by cycle.)

Experiment [2] deals with forebrain-committed neural stem cells. The experiment in a line: HD-DoE stage 2, 12-factor experiment: NKX2-1 expression. It is filed as cell-based, human. As to conditions: model / dynamic profile, in words. Put shortly: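 Forebrain-committed neural stem cells were treated for 3 days after stage 1 in a 12-factor high-dimensional DoE (LDN193189, BMP7, PD0325901, MK2206, A8301, XAV939, CHIR99021, purmorphamine, SANT-1, AGN193109, TTNPB, GSI-XX) to drive ventral forebrain identity. The read-out was NKX2-1 expression. Dynamic profile modelling also targeted minimal PAX6 and NKX2-2.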

The test system of experiment [3] is human pluripotent stem cells. The experiment in a line: Factor criticality analysis, stage 1 recipe (dynamic profile analysis). It is filed as cell-based. As to conditions: other five stage 1 factors present, FIG. 11; for expression level of FEZF2 when the factor is removed: 2000 with all six factors; for expression level of SIX3 when the factor is removed: 3000 with all six factors; for expression level of OTX2 when the factor is removed: 5500 with all six factors. The text has this:
To assess the impact of the elimination of each validated factor, dynamic profile analysis was used and compared the expression level of genes of interest in absence of each finalized factor while others are present. […] When Purmorphamine was removed, levels of FEZF2 and SIX3 were decreased to 1000 and below 3000, while levels of OTX2 increased to 6500.

Experiment [4] concerns forebrain-committed neural stem cells. The experiment in a line: Factor criticality analysis, stage 2 recipe. Particulars: for expression level of PAX6 when the factor is removed / expression level of NKX2-2 when the factor is removed / expression level of NKX2-1 when the factor is removed: other three stage 2 factors present; for expression level of PAX6 when the factor is removed: 0 with all four factors; for expression level of NKX2-2 when the factor is removed: 100 with all four factors; for expression level of NKX2-1 when the factor is removed: 5000 with all four factors. It is filed as cell-based, human. The procedure:
To assess the impact of the elimination of each validated factor, dynamic profile analysis was used and compared the expression level of genes of interest in absence of each finalized factor while others are present.
In the stage 2 recipe, each of the four finalized factors were removed while the other three factors remained present and expression levels of NKX2-1, PAX6 and NKX2-2 were assessed compared to presence of all four factors. Absence of PD0325901 reduced the levels of NKX2-1 and NKX2-2 while increasing PAX6 from 5000 to 3200, 100 to 0 and 0 to 5000, respectively. […] Removing XAV939 reduced the levels of NKX2-1 from 5000 to 3000, while increasing both PAX6 and NKX2-2 to 10000 and 200, respectively. Another observation was the interaction between XAV939 and Purmorphamine. In the absence of XAV939, the impact of Purmorphamine on NKX2-1 became negative and, as it is shown in interaction plot of FIG. 14, the level of NKX2-1 is higher when both factors are present.

[5] abbreviates: dynamic profile analysis, in words.

On to `c1ccc2c(-c3cnn4cc(-c5ccc(N6CCNCC6)cc5)cnc34)ccnc2c1` [LDN193189], for which the “factor contribution, important input for high expression of SIX3” value in experiment [1] (FIG. 2 legend) turned out to be 24.9. In addition, in experiment [1] (in words), the “impact on expression of OTX2” value was “positive impact”. In addition, in experiment [1] (positive effector, model optimized for maximum OTX2 at 6348), the “factor contribution, expression of OTX2” value was found to be 8. Further, in experiment [1], the “factor contribution, expression of SIX3” value stood at 16 and the “factor contribution, expression of FEZF2” value is 25. Further, the “impact on expression of NKX2-1” value in experiment [2] was “increase”. In experiment [3], the “expression level of FEZF2 when the factor is removed” value (“expression level of FEZF2” below) is 1000, the “expression level of SIX3 when the factor is removed” value (shortened to “expression level of SIX3”) was 0 and the “expression level of OTX2 when the factor is removed” value (“expression level of OTX2” below) turned out to be 4000. In addition, in experiment [4], the “expression level of PAX6 when the factor is removed” value is listed as “below 0”, the “expression level of NKX2-2 when the factor is removed” value was “below 0” and the “expression level of NKX2-1 when the factor is removed” value was “did not significantly change”.

`O=C(NOC[C@H](O)CO)c1ccc(F)c(F)c1Nc1ccc(I)cc1F` [PD0325901]: the “impact on expression of OTX2” value in experiment [1] (in words) is reported as “positive impact”. The “factor contribution, expression of FEZF2” value in experiment [1] is on record as 10. Moreover, the “impact on expression of NKX2-1” value in experiment [2] is “increase; also recorded: Positive impact”. Besides, in experiment [3], the “expression level of FEZF2” value was “drop”, the “expression level of SIX3” value was “did not have a significant impact” and the “expression level of OTX2” value is given as “did not have a significant impact”. In addition, in experiment [4], the “expression level of PAX6 when the factor is removed” value came out at 5000, the “expression level of NKX2-2 when the factor is removed” value is listed as 0 and the “expression level of NKX2-1 when the factor is removed” value is reported as 3200.

Consider `c1ccc2c(Oc3nc(Nc4ccc(N5CCOCC5)cc4)c4ncn(C5CCCCC5)c4n3)cccc2c1` [Purmorphamine], for which the “impact on expression of OTX2” value in experiment [1] (in words) is reported as “negative effect”. Besides, in experiment [1] (setting [5]), the “impact on expression of FEZF2” value is on record as “positive impact” and the “impact on expression of SIX3” value was “positive impact”. In experiment [1], the “factor contribution, expression of SIX3” value is 5 and the “factor contribution, expression of FEZF2” value is 7. Further, the “impact on expression of NKX2-1” value in experiment [2] is “increase”. Moreover, in experiment [3], the “expression level of FEZF2” value is recorded as 1000, the “expression level of SIX3” value is recorded as “below 3000” and the “expression level of OTX2” value was 6500. In addition, in experiment [4] (interaction plot FIG. 14), the “impact on NKX2-1 in the absence of XAV939” value is “negative”.
